Results as given in PMC4134938 (Clinical cancer research : an official journal of the …, 2009).
Where two headings read alike, the source gives them in different places.

How the values were obtained:
[1] = 5-FU plasma pharmacokinetics; type: in vivo, human; conditions: for AUC / Cmax / Css: plasma 5-FU, mean ± SD
[2] = system: patients with refractory colorectal cancer
[3] = system: thymidylate synthase (TS); assay: TS tumor expression by immunohistochemistry in paired liver metastasis biopsies; type: in vivo, human; conditions: for Change in TS staining intensity (IHC): day 4 vs pre-treatment
[4] = system: metastatic colorectal cancer; assay: Antitumor response by CT; type: in vivo, human; conditions: 21 assessable patients, vorinostat + FOLFOX
[5] = read-out: Cmax of vorinostat; single-agent 900 mg/m^2 i.v. over 2 hours x 3 days every 3 weeks; ref [26]; cited from earlier work
[6] = Vorinostat serum pharmacokinetics; type: in vivo, human; conditions: for AUC / Tmax / half-life / Cmax: human, po
[7] = system: patients with refractory colorectal cancer; assay: Toxicity assessment per NCI CTC 3.0; type: in vivo, human
[8] = system: thymidylate synthase (TS); conditions: ref [28], [29], cited from earlier work
[9] = system: thymidylate synthase (TS); assay: TS tumor gene expression by RT-PCR in paired biopsies; type: in vivo, human
[10] = maintenance dose 2400 mg/m^2, vorinostat 100 mg
[11] = maintenance dose 2400 mg/m^2, vorinostat 200 mg
[12] = maintenance dose 2400 mg/m^2, vorinostat 300 mg
[13] = maintenance dose 2400 mg/m^2, vorinostat 400 mg
[14] = serum, 100 mg, vorinostat 100 mg PO BID, Day 1, serum, mean
[15] = serum, 200 mg, vorinostat 200 mg PO BID, Day 5 (with FOLFOX), serum, mean
[16] = serum, 300 mg, vorinostat 300 mg PO BID, Day 1, serum, mean
[17] = serum, 300 mg, vorinostat 300 mg PO BID, Day 5 (with FOLFOX), serum, mean
[18] = serum, 400 mg, vorinostat 400 mg PO BID, Day 1, serum, mean
[19] = serum, 400 mg, vorinostat 400 mg PO BID, Day 5 (with FOLFOX), serum, mean
[20] = DL4 vorinostat 400 mg BID+FOLFOX, 4 patients, all cycles
[21] = all dose levels, 21 patients, vorinostat + FOLFOX

In the case of `O=c1[nH]cc(F)c(=O)[nH]1` [5-FU, 5-Fluorouracil], the AUC [1, 10] is reported as 15.3 ± 5.7 ηg*hr/mL, the Cmax [1, 10] is reported as 5.03 ± 4.39 ηg/mL and the Css [1, 10] is reported as 0.287 ± 0.044 ηg/mL. For the same compound, the AUC [1, 11] was 24 ± 9.11 ηg*hr/mL, the Cmax [1, 11] was 13.1 ± 7.96 ηg/mL and the Css [1, 11] was 0.274 ± 0.045 ηg/mL. The AUC [1, 12] was 68.7 ± 88.1 ηg*hr/mL, the Cmax [1, 12] was 24.5 ± 14.5 ηg/mL and the Css [1, 12] was 0.396 ± 0.159 ηg/mL. The AUC [1, 13] was 46.7 ± 10.6 ηg*hr/mL, the Cmax [1, 13] was 26.8 ± 11.4 ηg/mL and the Css [1, 13] was 0.432 ± 0.077 ηg/mL. The “median 5-FU Css” value ([1]; vorinostat 100 mg BID dose group) was 3000 ng/mL, the “Median 5-FU AUC” value ([1]; vorinostat 100 mg dose group) was 14000 ng·h/mL and the “median 5-FU Css” value ([1]; vorinostat 200 mg BID dose group) was 16000 ng/mL. For the same compound, the “Median 5-FU AUC” value ([1]; vorinostat 200 mg dose group) was 26000 ng·h/mL, the “median 5-FU Css” value ([1]; vorinostat 300 mg BID dose group) was 20000 ng/mL and the “Median 5-FU AUC” value ([1]; vorinostat 300 mg dose group) was 35000 ng·h/mL. The “median 5-FU Css” value ([1]; vorinostat 400 mg BID dose group) was 23000 ng/mL and the “Median 5-FU AUC” value ([1]; vorinostat 400 mg dose group) was 44000 ng·h/mL.

For `O=C(CCCCCCC(=O)Nc1ccccc1)NO` [vorinostat, Suberoylanilide Hydroxamic Acid], the “Patients with DLT” value ([2]; DL1 vorinostat 100 mg PO BID + FOLFOX, 3 evaluable patients, cycle 1) was “None”, the “Patients with DLT” value ([2]; DL2 vorinostat 200 mg PO BID + FOLFOX, 3 patients, cycle 1) was “without any DLT” and the “Patients with DLT (fatigue, anorexia, dehydration)” value ([2]; DL3 vorinostat 300 mg PO BID + FOLFOX, evaluable patients, cycle 1) was “One of 10”. The Tolerability of dose-level ([2]; DL4 vorinostat 400 mg PO BID + FOLFOX) was “intolerable”, the “Patients with DLT (grade 3 fatigue; grade 3 diarrhea in one)” value ([2]; DL4 vorinostat 400 mg PO BID + FOLFOX, cycle 1) was 2 of 4 and the “MTD of vorinostat in combination with FOLFOX” value ([2]; x 1 week every two weeks, FOLFOX on days 4 and 5) was 300 mg PO BID. The “Patients with no change in TS staining pattern (IHC)” value ([3]; 6 paired samples, pre-treatment vs 4th day of vorinostat, cycle 1) was 4, the “Change in TS staining intensity (IHC)” value ([3]; one patient at DL1 (vorinostat 100 mg PO BID)) was “decreased intensity from strong to weak” and the “Change in TS staining intensity (IHC)” value ([3]; one patient at DL4 (vorinostat 400 mg PO BID)) was “increase in intensity from weak to strong”. The Objective response [4] was “No patient developed an objective response”, the “Patients with confirmed stable disease” value [4] was 5 and the “Patients with stable disease on 2-month staging CT scan” value [4] was “Eleven”. The Cmax [5] was > 20000 nM, the AUC [6, 14] was 2.5 µM·h and the Tmax [6, 14] was 2.4 h. For the same compound, the half-life ([6]; serum, 100 mg, t1/2, vorinostat 100 mg PO BID, Day 1, serum, mean) was 1.5 h, the AUC ([6]; serum, 200 mg, vorinostat 200 mg PO BID, Day 1, serum, mean) was 1.9 µM·h and the AUC [6, 15] was 3.3 µM·h. It also gave a Cmax ([6]; serum, 200 mg, Cmax, vorinostat 200 mg PO BID, Day 1, serum, mean) of 816 nM, a Cmax ([6]; serum, 200 mg, Cmax, vorinostat 200 mg PO BID, Day 5 (with FOLFOX), serum, mean) of 894 nM and a Tmax [6, 15] of 2.7 h. For the same compound, the half-life ([6]; serum, 200 mg, t1/2, vorinostat 200 mg PO BID, Day 1, serum, mean) was 1.2 h, the AUC [6, 16] was 4.4 µM·h and the AUC [6, 17] was 6.8 µM·h. For the same compound, the Cmax ([6]; serum, 300 mg, Cmax, vorinostat 300 mg PO BID, Day 1, serum, mean) was 1460 nM, the Cmax ([6]; serum, 300 mg, Cmax, vorinostat 300 mg PO BID, Day 5 (with FOLFOX), serum, mean) was 950 nM and the Tmax [6, 16] was 1.6 h. It also gave a Tmax [6, 17] of 2.4 h, a half-life ([6]; serum, 300 mg, t1/2, vorinostat 300 mg PO BID, Day 1, serum, mean) of 2.3 h and a half-life ([6]; serum, 300 mg, t1/2, vorinostat 300 mg PO BID, Day 5 (with FOLFOX), serum, mean) of 2.3 h. The AUC [6, 18] was 4.5 µM·h, the AUC [6, 19] was 7.4 µM·h and the Cmax ([6]; serum, 400 mg, Cmax, vorinostat 400 mg PO BID, Day 1, serum, mean) was 1510 nM. It also gave a Cmax ([6]; serum, 400 mg, Cmax, vorinostat 400 mg PO BID, Day 5 (with FOLFOX), serum, mean) of 1480 nM, a Tmax [6, 18] of 1.9 h and a Tmax [6, 19] of 2.8 h. The half-life ([6]; serum, 400 mg, t1/2, vorinostat 400 mg PO BID, Day 1, serum, mean) was 3.7 h, the half-life ([6]; serum, 400 mg, t1/2, vorinostat 400 mg PO BID, Day 5 (with FOLFOX), serum, mean) was 2.2 h and the Cmax ([6]; serum, Cmax of vorinostat, at all dose levels (100-400 mg PO BID)) was < 2000 nM. For the same compound, the CLapp ([6]; vorinostat 100 mg PO BID, Day 1, serum, mean) was 189 L/h, the CLapp ([6]; vorinostat 100 mg PO BID, Day 5 (with FOLFOX), serum, mean) was 202 L/h and the CLapp ([6]; vorinostat 200 mg PO BID, Day 1, serum, mean) was 400 L/h. It also gave a CLapp ([6]; vorinostat 200 mg PO BID, Day 5 (with FOLFOX), serum, mean) of 231 L/h, a CLapp ([6]; vorinostat 300 mg PO BID, Day 1, serum, mean) of 285 L/h and a CLapp ([6]; vorinostat 300 mg PO BID, Day 5 (with FOLFOX), serum, mean) of 225 L/h. The CLapp ([6]; vorinostat 400 mg PO BID, Day 1, serum, mean) was 345 L/h, the CLapp ([6]; vorinostat 400 mg PO BID, Day 5 (with FOLFOX), serum, mean) was 211 L/h and the “Change in vorinostat Clapp, day 5 compared to day 1” value ([6]; within patients, 14 patients, p=0.003) was “significant decrease”. The “Change in vorinostat AUC, day 5 compared to day 1” value ([6]; within patients, 14 patients, p=0.005) was “significant increase”, the “Change in vorinostat Tmax, day 5 compared to day 1” value ([6]; within patients, 19 patients, p=0.02) was “statistically significant increase” and the “Neutropenia G3 (patients)” value [7, 20] was 2. The “Thrombocytopenia G4 (patients)” value [7, 20] was 2, the “Grade 3-4 thrombocytopenia (patients)” value [7, 21] was 5 and the “Grade 3-4 thrombocytopenia (share of patients)” value [7, 21] was 24%. The “Down-regulation of TS expression” value ([8]; in vitro and in vivo models, Q-PCR analysis) was ≤ 100 fold, the “Vorinostat concentration required for effective TS down-regulation” value ([8]; pre-clinical studies, 24 hours of vorinostat exposure) was ≥ 5 µM and the “Patients without any change in TS expression (RT-PCR)” value ([9]; 6 patients with paired biopsies) was “four”. For the same compound, the “Patients with down-regulation of TS (RT-PCR)” value ([9]; paired tumor biopsies, day 4 of vorinostat vs pre-treatment (DL1 and DL4)) was 2 of 6, the “Decrease in TS gene expression” value ([9]; patient at DL1 (vorinostat 100 mg PO BID)) was ~50% and the “TS gene expression relative to β-actin” value ([9]; patient at DL1, before vorinostat) was 0.92. For the same compound, the “TS gene expression relative to β-actin” value ([9]; patient at DL1, following vorinostat treatment) was 0.45, the “Decrease in TS gene expression” value ([9]; patient at DL4 (vorinostat 400 mg PO BID)) was “approximately 33%” and the “TS gene expression relative to β-actin” value ([9]; patient at DL4, before vorinostat) was 2.27. For the same compound, the “TS gene expression relative to β-actin” value ([9]; patient at DL4, following vorinostat treatment) was 1.58.
